Test results: PMC7914897, “Cytotoxic Potential of a-Azepano- and 3-Amino-3,4-SeCo-Triterpenoids” (International Journal of Molecular Sciences, 2021)
Like-named read-outs stand apart in the source and are kept apart here.

Experiments:
[1] = tested on: FaDu (hypopharyngeal carcinoma); test: SRB cytotoxicity assay, 72 h; assay type: cell-based, human; settings: Homo sapiens, cut-off 30 µM, read-out: EC50
Description: (§1) The cytotoxicity of compounds 1–20 was evaluated by means of a colorimetric sulforhodamine B (SRB) assay. For all compounds, the EC50 values were determined for the human tumor cell lines A375 (malignant melanoma), HT29 (colorectal carcinoma), MCF-7 (breast carcinoma), A2780 (ovarian carcinoma), FaDu (hypopharyngeal carcinoma), and NIH 3T3 (non-malignant mouse fibroblasts).
(§2) In short, exponentially growing cells were seeded into 96-well plates on day 0 at the appropriate cell densities to prevent confluence of the cells during the period of experiment. After 24 h, the cells were treated with serial dilutions of the compounds (0–30 µM) for 72 h. The final concentration of DMSO never exceeded 0.5%, which was non-toxic to the cells. After a 72 h treatment, the supernatant medium from the 96-well plates was discarded, and the cells were fixed with 10% TCA. For a thorough fixation, the plates were allowed to rest at 4 °C. After fixation, the cells were washed in a strip washer. The washing was done four times with water using alternate dispensing and aspiration procedures. The plates were then dyed with 100 µL of 0.4% SRB for about 20 min. After dying, the plates were washed with 1% acetic acid to remove the excess of the dye and allowed to air-dry overnight. Tris base solution (200 µL, 10 mM) was added to each well and absorbance was measured at λ = 570 nm (using a 96 well plate reader, Tecan Spectra, Crailsheim, Germany). The percentages of surviving cells relative to untreated controls were determined.

[2] = tested on: MCF-7 (breast carcinoma); test: SRB cytotoxicity assay, 72 h; assay type: cell-based, human; settings: Homo sapiens, MCF7; MCF-7, 72 h, cut-off 30 µM; read-out: EC50
Description: as §1, §2

[3] = tested on: A375 (malignant melanoma); test: SRB cytotoxicity assay, 72 h; assay type: cell-based, human; settings: A375, 72 h, cut-off 30 µM, read-out: EC50
Description: as §1, §2

[4] = tested on: A2780 (ovarian carcinoma); test: SRB cytotoxicity assay, 72 h; assay type: cell-based, human; settings: Homo sapiens; A2780, 72 h, cut-off 30 µM; read-out: EC50
Description: as §1, §2

[5] = tested on: HT29 (colorectal carcinoma); test: SRB cytotoxicity assay, 72 h; assay type: cell-based, human; settings: Homo sapiens, HT-29; HT29, 72 h, cut-off 30 µM; read-out: EC50
Description: as §1, §2

[6] = tested on: panel of approximately 60 cancer cell lines; test: NCI-60 screen (SRB, 48 h), full panel; settings: for activity at 10 µM: Homo sapiens, 48 h
[7] = tested on: NIH 3T3 (non-malignant mouse fibroblasts); test: SRB cytotoxicity assay, 72 h; assay type: cell-based; settings: Mus musculus, NIH3T3; NIH 3T3, 72 h, cut-off 30 µM; read-out: EC50
Description: as §1, §2

[8] = tested on: HT29 (Colon cancer); test: NCI-60 screen (SRB, 48 h); settings: HT29, 1 dose 10 µM
[9] = tested on: COLO 205 (Colon cancer); test: NCI-60 screen (SRB, 48 h); settings: COLO 205, 1 dose 10 µM
[10] = tested on: SR (Leukemia); test: NCI-60 screen (SRB, 48 h); assay type: cell-based; settings: 1 dose 10 µM
[11] = tested on: MALME-3M (Melanoma); set-up: method as in earlier work; settings: cited from earlier work
[12] = tested on: NCI-H23 (NSC lung cancer); set-up: method as in earlier work; settings: cited from earlier work
[13] = tested on: CAKI-1 (Renal cancer); set-up: method as in earlier work; settings: cited from earlier work
[14] = tested on: panel of approximately 60 cancer cell lines; set-up: method as in earlier work; settings: standard drugs; read-out: GI50 MG_MID60; cited from earlier work
[15] = tested on: HOP-92 (NSC lung cancer); set-up: method as in earlier work; settings: cited from earlier work
[16] = tested on: MDA-MB-31/ATCC (Breast cancer); set-up: method as in earlier work; settings: cited from earlier work
[17] = tested on: SNB-75 (CNS cancer); set-up: method as in earlier work; settings: cited from earlier work
[18] = tested on: RPMI-8226 (Leukemia); set-up: method as in earlier work; settings: cited from earlier work
[19] = tested on: OVCAR-3 (Ovarian cancer); set-up: method as in earlier work; settings: cited from earlier work
[20] = tested on: MCF7 (Breast cancer); set-up: method as in earlier work; settings: cited from earlier work
[21] = tested on: MDA-MB-435 (Melanoma); set-up: method as in earlier work; settings: cited from earlier work
[22] = tested on: HOP-62 (NSC lung cancer); set-up: method as in earlier work; settings: cited from earlier work
[23] = tested on: NCI-H522 (NSC lung cancer); set-up: method as in earlier work; settings: cited from earlier work
[24] = tested on: NCI-H460 (NSC lung cancer); set-up: method as in earlier work; settings: cited from earlier work
[25] = tested on: HCC-2998 (Colon cancer); set-up: method as in earlier work; settings: cited from earlier work
[26] = tested on: NCI-H226 (NSC lung cancer); set-up: method as in earlier work; settings: cited from earlier work
[27] = tested on: SF-539 (CNS cancer); set-up: method as in earlier work; settings: cited from earlier work

| Structure (SMILES) | EC50 [1] [µM] | EC50 [2] [µM] | EC50 ([3]; Homo sapiens, A-375, 72 h) [µM] | EC50 [4] [µM] | EC50 [5] [µM] | Positive Cytostatic Effect (cell lines with percent growth 0 to 50 / total) ([6]; 1 dose 10 µM) | number of cancer cell lines the compound was active against ([6]; 1 dose 10 µM) | activity at 10 µM ([6]; read-out: Mean Growth, %) [%] | activity at 10 µM ([6]; read-out: Range of Growth, %) [%] | EC50 [7] [µM] | other results |
| --- | --- | --- | --- | --- | --- | --- | --- | --- | --- | --- | --- |
| CC(=O)[C@@H]1CC[C@]2(CO)CC[C@]3(C)[C@H](CC[C@@H]4[C@@]5(C)CCCNC(C)(C)[C@@H]5CC[C@]43C)[C@@H]12 [Compound 2, azepanomessagenin] | 6.21 ± 1.2 | 5.78 ± 0.7 | 7.92 | 7.71 ± 0.4 | 6.32 ± 0.4 | 0/59 | did not show antiproliferative activity | 99.2 | 68.1 to 136 | 8.03 ± 1.4 | EC50 [3]: 7.82 ± 0.3 µM; Growth % of the Most Sensitive Cell Lines [8]: 68.07% |
| CC1(C)NCCC[C@]2(C)[C@H]3CC=C4[C@@H]5C[C@@](C)(CO)CC[C@]5(C)CC[C@@]4(C)[C@]3(C)CC[C@@H]12 [Compound 5, azepano-glycyrretol] | 4.81 ± 0.9 | 5.68 ± 0.5 | 5.69 ± 0.4 | 6.36 ± 0.6 | 3.97 ± 0.4 | 13/58 | 8 cell lines | 56.2 | -4.98 to 98.9 | 7.43 ± 1.2 | Growth % of the Most Sensitive Cell Lines [9]: −4.98%; Positive Cytotoxic Effect (cell lines with percent growth < 0 / total) ([6]; 1 dose 10 µM): 2/58; Growth % of the Most Sensitive Cell Lines [10]: −1.30% |
| O=c1[nH]cc(F)c(=O)[nH]1 [Compound 5-FU, 5-fluorouracil] |  |  |  |  |  |  |  |  |  |  | GI50 [11]: 0.05 µM; GI50 [12]: 0.33 µM; GI50 [13]: 0.07 µM; GI50 [14]: 6.97 µM; GI50 [15]: 77.9 µM; GI50 [16]: 6.6 µM; GI50 [17]: 78.7 µM; GI50 [18]: 0.04 µM; GI50 [19]: 0.01 µM; GI50 [20]: 0.07 µM; GI50 [21]: 0.07 µM; GI50 [22]: 0.39 µM; GI50 [23]: 7.27 µM; GI50 [24]: 0.05 µM; GI50 [25]: 0.05 µM; GI50 [26]: 54.7 µM; GI50 [27]: 0.06 µM |
| C=C(C)[C@@H]1CC[C@]2(C(=O)NC3CCCCC3)CC[C@]3(C)[C@H](CC[C@@H]4[C@@]5(C)CCCNC(C)(C)[C@@H]5CC[C@]43C)[C@@H]12 [Compound 10] | 2.04 ± 0.1 | 1.9 ± 0.1 | 2.18 ± 0.2 | 2.27 ± 0.4 | 0.98 ± 0.1 |  |  |  |  | 1.5 ± 0.2 |  |
